Legend:
[1] = target: T1, Helix pomatia agglutinin (HPA) (Helix pomatia, UniProt Q2F1K8); assay: SPR competition assay; assay type: binding; settings: 8 µM mIgA1κ as competed analyte, 25 °C; competitive
T1 sequence (Q2F1K8 20-121): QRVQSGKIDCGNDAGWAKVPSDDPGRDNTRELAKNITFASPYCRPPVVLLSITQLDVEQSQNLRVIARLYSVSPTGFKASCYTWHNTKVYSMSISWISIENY

[2] = test system: Helix aspersa agglutinin (HAA); assay: SPR competition assay; assay type: binding, Cornu aspersum; settings: 8 µM mIgA1κ as competed analyte, 25 °C; competitive

Compound `CC(=O)N[C@H]1C(O)O[C@H](CO)[C@H](O)[C@@H]1O` (some centres unmarked) [GalNAc] has an IC50 [1] of 220 ± 20 µM and an IC50 [2] of 81 ± 8 µM.

— paper PMC3721678 (Biochemistry, 2010)
